Assay results as given in patent publication US6846492B2, “Use of phenylethylamine derivatives for the antimicrobial treatment of surfaces” (Ciba Specialty Chemicals Corporation, priority 2000, dated 2005).

Experiments:
Format in all cases: cell-based
[1] = tested on: Staphylococcus hominis DMS 20328 (= SH); assay: MIC determination in microtiter plates, Staphylococcus hominis; settings: Tables 2a/2b, 48 hours at 37° C., ≦20% growth, optical density 620 nm, tested at 120, 60, 30, 15, 7.5 and 3.5 ppm, some approximate
Method: (§1) Determination of the Minimum Inhibitory Concentration (MIC Value) in Microtiter Plates
(§2) Casein/soybean flour peptone bouillon for the preparation of pre-cultures of the test bacteria and yeast.
(§3) Mycological slant agar for the pre-culture of moulds
(§4) The test substances are pre-dissolved in dimethyl sulfoxide (DMSO) and tested in a dilution series of 1:2.
(§5) Bacteria and yeast are cultured overnight in CASO bouillon, the mould is cultured overnight on mycological slant agar, and washed off with 10 ml of 0.85% sodium chloride solution (+0.1% TritonX-100).
(§6) All the test organisms are adjusted to an organism count of 1−5×10^6 CFU/ml using 0.85% sodium chloride solution.
(§7) The test substances are pre-pipetted into microtiter plates in an amount of 8 μl per well.
(§8) Pre-diluted organism suspensions are diluted 1:100 in CASO bouillon (bacteria and yeast) or Sabouraud 2% glucose bouillon (mould) and are added in an amount of 192 μl per well to the test substances.
(§9) The test batches are incubated for 48 hours at 37° C. (bacteria and yeast) or for 5 days at 28° C. (mould).
(§10) After incubation, the growth is evaluated by reference to the turbidity of the test batches (optical density) at 620 nm in a microplate reader.
(§11) One microtiter plate is used for each test organism and substance concentration. All the substances are tested in duplicate.

[2] = tested on: Escherichia coli NCTC 8196 (= EC); assay: MIC determination in microtiter plates, Escherichia coli; settings: Tables 2a/2b, 48 hours at 37° C., ≦20% growth, optical density 620 nm, some approximate values
Method: as §1, §2, §3, §4, §5, §6, §7, §8, §9, §10, §11

[3] = tested on: Pseudomonas aeruginosa CIP A-22 (= PA); assay: MIC determination in microtiter plates, Pseudomonas aeruginosa; settings: Tables 2a/2b, 48 hours at 37° C., ≦20% growth, optical density 620 nm, some approximate values
Method: as §1, §2, §3, §4, §5, §6, §7, §8, §9, §10, §11

[4] = tested on: Candida albicans ATCC 10231 (= CA); assay: MIC determination in microtiter plates, Candida albicans; settings: Tables 2a/2b, 48 hours at 37° C., ≦20% growth, optical density 620 nm, some approximate values
Method: as §1, §2, §3, §4, §5, §6, §7, §8, §9, §10, §11

[5] = tested on: Aspergillus niger ATCC 6275 (= AN); assay: MIC determination in microtiter plates, Aspergillus niger; settings: Tables 2a/2b, 5 days at 28° C., ≦20% growth, optical density 620 nm, some approximate values
Method: as §1, §2, §3, §4, §5, §6, §7, §8, §9, §10, §11

Compound	MIC [ppm] SH [1] [ppm]	MIC [ppm] EC [2] [ppm]	MIC [ppm] PA [3] [ppm]	MIC [ppm] CA [4] [ppm]	MIC [ppm] AN [5] [ppm]
NCCc1ccc(OCC(=O)OCc2ccccc2)c(OCC(=O)OCc2ccccc2)c1 [Compound 26]	>120	>120	>120	>120	>120
CCOC(=O)CCCOc1ccc(CCN)cc1OCCCC(=O)OCC [Compound 27]	>120	>120	>120	>120	>120
CCOC(=O)CCCCOc1ccc(CCN)cc1OCCCCC(=O)OCC [Compound 28]	>120	>120	>120	>120	>120
CCCOc1ccc(CCN)cc1OCCC [Compound 29]	>120	>120	>120	>120	>120
CCCCOc1ccc(CCN)cc1OCCCC [Compound 30]	120	120	>120	120	>120
CC(C)Oc1ccc(CCN)cc1OC(C)C [Compound 31]	>120	>120	>120	>120	>120
CCC(C)Oc1ccc(CCN)cc1OC(C)CC (stereo not drawn) [Compound 32]	>120	>120	>120	>120	>120
CC(C)CCOc1ccc(CCN)cc1OCCC(C)C [Compound 33]	30	15	120	30	>120
CCC(CC)Oc1ccc(CCN)cc1OC(CC)CC [Compound 35]	60	60	>120	60	>120
CCCCCCOc1ccc(CCN)cc1OCCCCCC [Compound 36]	3.75	3.75	>120	3.75	>120
CCCCCCCOc1ccc(CCN)cc1OCCCCCCC [Compound 37]	3.75	30	>120	30	>120
CCCCCCCCOc1ccc(CCN)cc1OCCCCCCCC [Compound 38]	7.5	>120	>120	>120	>120
CCCCCCCCCOc1ccc(CCN)cc1OCCCCCCCCC [Compound 39]	60	>120	>120	>120	>120
CCCCCCCCCCOc1ccc(CCN)cc1OCCCCCCCCCC [Compound 40]	>120	>120	>120	>120	>120
NCCc1ccc(OC2CCCC2)c(OC2CCCC2)c1 [Compound 41]	120	120	>120	120	>120
C=CCOc1ccc(CCN)cc1OCC=C [Compound 42]	>120	>120	>120	>120	>120
C=CCCOc1ccc(CCN)cc1OCCC=C [Compound 43]	>120	>120	>120	>120	>120
C=CCCCOc1ccc(CCN)cc1OCCCC=C [Compound 44]	60	60	>120	60	>120
N#Cc1ccc(COc2cc(CCN)cc(OCc3ccc(C#N)cc3)c2OCc2ccc(C#N)cc2)cc1 [Compound 64]	>120	>120	>120	60	15
COC(=O)c1ccc(COc2cc(CCN)cc(OCc3ccc(C(=O)OC)cc3)c2OCc2ccc(C(=O)OC)cc2)cc1 [Compound 65]	15	>120	>120	60	>120
NCCc1cc(OCc2ccccc2F)c(OCc2ccccc2F)c(OCc2ccccc2F)c1 [Compound 66]	15	15	>120	120	>120
NCCc1cc(OCc2cccc(F)c2)c(OCc2cccc(F)c2)c(OCc2cccc(F)c2)c1 [Compound 67]	3.75	7.5	>120	7.5	>120
NCCc1cc(OCc2ccc(F)cc2)c(OCc2ccc(F)cc2)c(OCc2ccc(F)cc2)c1 [Compound 68]	3.75	3.75	>120	3.75	>120
CC(C)(C)c1ccc(COc2cc(CCN)cc(OCc3ccc(C(C)(C)C)cc3)c2OCc2ccc(C(C)(C)C)cc2)cc1 [Compound 69]	>120	>120	>120	>120	>120
NCCc1cc(OCc2ccccc2)c(OCc2ccccc2)c(OCc2ccccc2)c1 [Compound 70]	7.5	7.5	>120	15	>120
NCCc1cc(OCc2ccc3ccccc3c2)c(OCc2ccc3ccccc3c2)c(OCc2ccc3ccccc3c2)c1 [Compound 71]	>120	>120	>120	>120	>120
COC(=O)COc1cc(CCN)cc(OCC(=O)OC)c1OCC(=O)OC [Compound 72]	>120	>120	>120	>120	>120
